Data reported in PubChem BioAssay (NCI).
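Where inhibition never reached the appropriate level, the endpoint shown equals the highest concentration tested. Otherwise, values were interpolated linearly from a five-concentration, 48-hour dose response in 96-well plates. The concentration for full growth arrest is given as TGI.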 Where a SMILES comes first, the peptide text is derived from it. [ ]: non-standard residue; d: D form. The star is where a group is joined. ξ: configuration not given here. NMeY = CN[C@@H](Cc1ccc(O)cc1)C(=O)O; Cbz = O=C(OCc1ccccc1)*; ξA = CC(N)C(=O)O

What was measured:
Assay in all cases: NCI tumour cell line growth inhibition, 48 h
A549 NSCLC = test system: A549 NSCLC
LOX IMVI melanoma = test system: LOX IMVI melanoma
M14 melanoma = test system: M14 melanoma
MDA-MB-435 = test system: MDA-MB-435
NCI-H226 lung = test system: NCI-H226 lung
NCI-H522 lung = test system: NCI-H522 lung
OVCAR-5 ovarian = test system: OVCAR-5 ovarian
SK-MEL-5 melanoma = test system: SK-MEL-5 melanoma
SNB-19 CNS = test system: SNB-19 CNS
U251 CNS = test system: U251 CNS

Row | SMILES | TGI (A549 NSCLC) [µM] | TGI (LOX IMVI melanoma) [µM] | TGI (M14 melanoma) [µM] | TGI (MDA-MB-435) [µM] | TGI (NCI-H226 lung) [µM] | TGI (NCI-H522 lung) [µM] | TGI (OVCAR-5 ovarian) [µM] | TGI (SK-MEL-5 melanoma) [µM] | TGI (SNB-19 CNS) [µM] | TGI (U251 CNS) [µM]
1 | CC(=Nc1ccc(Cl)cc1)c1ccncc1 | > 100 | > 100 | > 100 | > 100 | > 100 | > 100 | > 100 | > 100 | > 100 | > 100
2 | CC/C(Cl)=N\OC(=O)Nc1ccc(F)c(Cl)c1 | 54.9 | 9.68 | 23.1 | 39.4 | 51.3 | 3.44 | 31.4 | 29 | 20.7 | 33.9
3 | COc1ccc(C[C@@H](C(=O)N[C@@H](C)C(N)=O)N(C)C(=O)[C@@H]2CCCN2C(=O)[C@H](CC(C)C)NC(=O)C(C)NC(=O)OCc2ccccc2)cc1 (stereo not given in full) (Cbz-[ξA]LP[NMeY](Me)A-NH2) | > 100 | > 100 | > 100 | > 100 | > 100 | > 100 | > 100 | > 100 | > 100 | > 100
4 | COc1ccc(/C(C)=C2\CCCN(Cc3ccccc3)C2)cc1 | 86 | 35.3 | 36.7 | 51.6 | 63.6 | 26.4 | > 100 | 36.8 | 50.6 | 40.3
5 | CNC(=O)O/N=C1\N(C)CN(c2ccccc2)C12CCN(CCCC(=O)c1ccc(F)cc1)CC2 | > 100 | > 100 | 32.9 | > 100 | > 100 | > 100 | > 100 | 33 | > 100 | > 100
6 | CCOC(=O)/C(=C\c1c[nH]c2ccccc12)P(=O)(OCC)OCC | > 100 | 40.3 | > 100 | > 100 | 77.5 | 89.9 | 87.9 | > 100 | > 100 | > 100
7 | COc1cccc(CCn2c(N)c(-c3cc(Cl)cc(Cl)c3)c3ccc([N+](=O)[O-])cc3c2=O)c1 | > 100 | > 56.1 | > 100 | > 100 | > 53.5 | > 26.6 | > 100 | 9.07 | > 44 | > 49.3
8 | N#CCCC1(CCC#N)S(=O)(=O)OCCOS1(=O)=O | > 100 | > 100 | > 100 | > 100 | > 100 | > 100 | > 100 | > 100 | > 100 | > 100
9 | CCC1(c2ccc(OC)c(OC)c2)CCN(S(=O)(=O)c2ccc(C)cc2)C1 (stereo not given) | > 100 | > 100 | > 100 | > 100 | > 100 | > 100 | > 100 | > 100 | > 100 | > 100
10 | COC1(OC)CCN(Cc2ccccc2)C1=O | 32.3 | 16.6 | 23 | 29.8 | 38.9 | > 100 | 31.8 | 29.2 | 34.9 | 34.1
11 | COc1ccc(C[C@H]2COC(=O)[C@@H]2Cc2ccc(Br)cc2)cc1OC | > 100 | 37.8 | > 89.5 | 55.7 | > 85.4 | > 71.1 | > 100 | 17.2 | > 61.8 | > 100
12 | NC(=O)C1=C(O)[C@@]2(O)C(=O)C3=C(O)c4c(O)cccc4CC3C[C@H]2CC1=O (stereo not given in full) | 14.9 | 10.5 | 13.2 | 40.2 | 8.43 | 7.72 | 12.3 | 3.67 | 10.9 | 12.8
13 | COc1ccc2nc3ccc(OC)cc3c(S(=O)Cc3ccccc3)c2c1 (stereo not given) | 37.3 | 6.66 | 30.1 | 27.8 | 38.5 | 2.63 | 35.3 | 30.5 | 41.5 | > 56.1
14 | COc1cc(-c2nc(N)c(C#N)c3c2CCS(=O)(=O)c2ccc(C)cc2-3)cc(OC)c1OC | > 100 | > 100 | > 100 | > 100 | 51.1 | > 100 | > 100 | > 100 | 29.5 | > 100
15 | O=C(Nn1c(-c2ccccc2)nc2ccccc2c1=O)c1cccc([N+](=O)[O-])c1 | > 100 | > 100 | > 100 | > 100 | > 100 | > 100 | > 100 | > 100 | > 100 | > 100
16 | CC(C)(C)OC(=O)N(O)CCCn1cnc2c(NC3CC3)ncnc21 | > 100 | > 100 | > 100 | > 100 | > 100 | > 100 | > 100 | > 100 | > 100 | > 100
17 | C=CC(C)(C)NC(C(=O)N1CCC[C@H]1c1nc(-c2nc(C(=O)OCC=C(C)C)c(C)o2)c(C)o1)C(C)C (stereo not given in full) | > 100 | > 74.5 | > 100 | > 72 | > 87.7 | > 100 | > 100 | > 72.7 | > 100 | > 78.1
